Test results: patent publication US20120329787A1, “FUNGICIDAL PYRANONES AND OXAZINONES” (E.I. DU PONT DE NEMOURS AND COMPANY, priority 2011, published 2012)

How the values were obtained:
Type in all cases: in vivo
Botrytis cinerea = assay: Test A: tomato Botrytis, spray on tomato seedlings the day before inoculation; settings: 200 ppm test suspension
Summary of the method: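 Visual disease rating after Botrytis cinerea spore inoculation one day post-treatment, incubation 48 h at 20 °C in saturated atmosphere then 3 days at 24 °C. Preventive foliar spray to run-off on tomato seedlings at 200 ppm (500 g/ha equivalent) or 40 ppm, acetone/water with surfactant.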

Alternaria solani = assay: Test B: tomato early blight, spray on tomato seedlings the day before inoculation; settings: 200 ppm test suspension
Summary of the method: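 Visual blight ratings were made after 48 h saturated incubation at 27 °C plus 5 days at 20 °C, following A. solani spore inoculation one day after run-off spraying at 200 ppm (or 40 ppm where marked).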

Phytophthora infestans = settings: 200 ppm test suspension; tomato seedlings
Rhizoctonia solani = assay: Test D: turf brown patch, spray on creeping bent grass seedlings the day before inoculation; settings: 200 ppm test suspension
Excerpt: General protocol for preparing test suspensions for Tests A-I: the test compounds were first dissolved in acetone in an amount equal to 3% of the final volume and then suspended at the desired concentration (in ppm) in acetone and purified water (50/50 mix by volume) containing 250 ppm of the surfactant Trem® 014 (polyhydric alcohol esters). The resulting test suspensions were then used in Tests A-I. Spraying a 200 ppm test suspension to the point of run-off on the test plants was the equivalent of a rate of 500 g/ha. […] (An asterisk “*” next to the rating value indicates a 40 ppm test suspension was used.) The test suspension was sprayed to the point of run-off on creeping bent grass (Agrostis sp.) seedlings. The following day, the seedlings were inoculated with a bran and mycelial slurry of Rhizoctonia solani (the causal agent of turf brown patch) and incubated in a saturated atmosphere at 27° C. for 48 h, and then moved to a growth chamber at 27° C. for 3 days, after which time disease ratings were made. […] A dash (-) indicates no test results. All results are for 200 ppm except where followed by an asterisk “*”, which indicates a 40 ppm.

Septoria nodorum = assay: Test E: Septoria glume blotch, spray on wheat seedlings the day before inoculation; settings: 200 ppm test suspension
Summary of the method: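 Wheat seedlings received a run-off spray of test suspension, then were inoculated with Septoria nodorum one day later. Suspensions: 200 ppm (≈500 g/ha) or, where asterisked, 40 ppm, in 50/50 acetone/water containing 250 ppm Trem 014.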

Septoria tritici = assay: Test F: wheat leaf blotch, spray on wheat seedlings the day before inoculation; settings: 200 ppm test suspension
Summary of the method: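 Protectant test: Septoria tritici spores inoculated one day after run-off spraying of test suspension (200 ppm, equal to 500 g/ha, or 40 ppm; acetone/water, 250 ppm Trem 014). Plants kept 48 h at 24° C in saturated air and 19 further days at 20° C, then disease scored visually.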

[1] = test system: Puccinia recondita f. sp. tritici; assay: Test H: wheat leaf rust, spray on wheat seedlings the day before inoculation; settings: 200 ppm test suspension, sprayed before inoculation
Summary of the method: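 Preventive test: one day after run-off spraying of seedlings at 200 ppm (some at 40 ppm), Puccinia recondita spores were applied. Disease was scored visually after 24 h saturated humidity plus 6 days, both at 20 °C.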

[2] = test system: Erysiphe graminis f. sp. tritici; assay: Test I: wheat powdery mildew, spray on wheat seedlings the day before inoculation; settings: 200 ppm test suspension
Summary of the method: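 Protectant test: spore-dust inoculation one day after run-off spraying, then 7 days in a 20° C growth chamber before visual scoring. Suspensions were 200 ppm, or 40 ppm where flagged, in 50/50 acetone-water containing 250 ppm Trem 014.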

| Structure (SMILES) | Test A rating (100 = 100% disease control, 0 = no disease control) (Botrytis cinerea) | Test B rating (100 = 100% disease control, 0 = no disease control) (Alternaria solani) | Test C rating (100 = 100% disease control, 0 = no disease control) (Phytophthora infestans) | Test D rating (100 = 100% disease control, 0 = no disease control) (Rhizoctonia solani) | Test E rating (100 = 100% disease control, 0 = no disease control) (Septoria nodorum) | Test F rating (100 = 100% disease control, 0 = no disease control) (Septoria tritici) | Test H rating (100 = 100% disease control, 0 = no disease control) [1] | Test I rating (100 = 100% disease control, 0 = no disease control) [2] |
| --- | --- | --- | --- | --- | --- | --- | --- | --- |
| Cc1noc(=O)c(-c2c(F)cc(F)cc2F)c1-c1ccc(Cl)c(F)c1 [Compound 16] | 0% | 0% | 0% | 0% | 0% | 97% | 0% | 0% |
| Cc1noc(=O)c(-c2c(F)cc(F)cc2F)c1-c1ccc(Cl)cc1 [Compound 3] | 99% | 100% | 9% | 78% | 0% | 99% | 98% | 99% |
| COc1cc(OC)cc(-c2c(-c3ccccc3F)noc(=O)c2-c2ccc(F)cc2F)c1 [Compound 21] | 0% | 0% | 0% | 0% | 0% | 0% | 0% | 0% |
| COc1cc(OC)cc(-c2c(-c3ccccc3F)noc(=O)c2-c2c(F)cccc2F)c1 [Compound 22] | 0% | 0% | 0% | 8% | 0% | 0% | 0% | 0% |
